Several values for one entry are separate records, joined by “and”; a condition that tells them apart may be missing. Equal entries are not always repeated.
Assays:
Type in all cases: in vivo
weeds [1] = experiment: Glasshouse weed control, HST inhibitors alone and with A22, post-emergence; details: 14 DAT, single replicate
Experimental: (§1) In a further test, the results of which are depicted in tables 18 and 19, weed seeds are planted out in trays containing 50% peat/50% John Innes no. 3 soil and grown in the glass house at 24-27 C day; 18-21 C night and approximately a 15 h photoperiod. Humidity is ˜65% and light levels at bench level are up to 2 mmol/m^2. Again all spray chemicals are dissolved in 0.2% X77 surfactant and sprayed from a boom on a track sprayer moving at 2 mph with the nozzle set about 2 inches above the plant tops. The spray volume is […]. Sprays are carried out both pre-emergence and post-emergence over small plants at about 7-12 d post-emergence. Plants are assessed at 14 DAT with herbicidal damage scored on a scale from 0 to 100%. The HPPD inhibiting herbicide is compound A22 (4-hydroxy-3-[[2-(2-methoxyethoxy)methyl]-6-(trifluoromethyl)-3-pyridinylicarbonyl]-bicyclo[3.2.1]oct-3-en-2-one) which is sprayed at 2 g/ha both alone and in mixture with various HST herbicides. Results and spray rates are depicted in Tables 18 and 19. Again the Colby formula has been used to calculate synergy scores observed following treatment with the mixture based on the results obtained with the single components alone. Positive synergy is observed between the HPPD herbicide and a wide variety of HST inhibitor herbicides applied both pre and postemergence across a variety of weeds.

weeds [2] = experiment: Glasshouse weed control, HST inhibitors alone and with A22, pre-emergence; details: 14 DAT
Experimental: as §1

[3] = test system: wild-type (WT) Samsun tobacco; experiment: Glasshouse spray test, wild-type tobacco; details: Norflurazon, 150 g/ha; 14 DAT; WT control, reps
Experimental: Rooted transgenic T0 plantlets are transferred from agar and potted into 50% peat, 50% John Innes soil no 3 or, for example, MetroMix® 380 soil (Sun Gro Horticulture, Bellevue, Wash.) with slow-release fertilizer in 3 inch round or 4 inch square pots and left regularly watered to establish for 8-12 d in the glass house. Glass house conditions are about 24-27° C. day; 18-21° C. night and approximately a 14 h (or longer in UK summer) photoperiod. Humidity is ˜65% and light levels up to 2000 μmol/m^2 at bench level. Once new tissue emerges and plants they have reached the 2-4 leaf stage some of the clones from each event are sprayed with test chemicals dissolved in water with 0.2-0.25% X-77 surfactant and sprayed from a boom on a suitable track sprayer moving at 2 mph in a DeVries spray chamber with the nozzle about 2 inches from the plant tops. Spray volume is suitably 25 gallons per acre or, for example, […].
Test chemicals are, for example, compound 2.3 at 500 g/ha. At the same time that transgenic plants are sprayed so too are w/t Samsun tobacco plants grown from seed as well as non-transgenic plants regenerated from tissue culture and non-transgenic tissue culture escapes. Damage is assessed versus unsprayed control plants of like size and development.
6 Seed from w/t Samsun tobacco and 8 T1 seed from events B8 and G9 are also planted out in 3 inch pots, grown on for 7 to 12 d and then, as described in the foregoing examples, the plantlets spray tested for resistance to various chemicals and assessed at 14 DAT. Chemicals are formulated in 0.2% X77 and sprayed at a spray volume of 200 l/ha.
Seed of wild-type tobacco plants, C2 tobacco plants and of the T1 progeny of a further Arabidopsis-HST expressing tobacco line, D2 were planted out in 3 inch pots, grown on, sprayed with compounds 1.1, 2.30 and 3.6 at the rates shown in table 5. Percent damage scores were assessed at 7 DAT. Aside from the presumptive non-transgenic segregants the D2 line containing the Arabidopis HST expression construct offered the highest level of tolerance to the two HST herbicides with the Psuedomonas HPPD, C2 line, offering only marginal tolerance under the conditions of this test.
Single copy events amongst the T1 plant lines are identified by their 3:1 segregation ratio (wrt kanamycin and or herbicide) and by quantitative RT-PCR. Seed from the thus selected T1 tobacco (var Samsun) lines are sown in 3 inch diameter pots containing 50% peat, 50% John Innes soil no 3. After growth to the 3 leaf stage, plants are sprayed, as described above, in order to test for herbicide tolerance relative to like-treated non-transgenic tobacco plants.
Control tobacco plants and transgenic T1 plants expressing either the Pseudomonas or the wheat HPPD gene are sprayed at 37, 111, 333 and 1000 g/ha rates of HST inhibitors and, for example, compound 2.3.
Plants are assessed and scored for % damage at 16 DAT.

CC(C)(C)C(=O)Oc1c(-c2c(F)ccc(Cl)c2Cl)c(=O)n(CC(F)F)c2nccnc12 [Compound 2.25]
% control score, Obs (weeds [1]; BRAPL, 15.625 g/ha alone): 15% | % control score, Obs (weeds [1]; BRAPL, 62.5 g/ha alone): 30% | % control score, Obs (weeds [1]; BRAPL, 250 g/ha alone): 60% | % control score, Obs (weeds [1]; DIGSA, 15.625 g/ha alone): 0% | % control score, Obs (weeds [1]; DIGSA, 62.5 g/ha alone): 2% | % control score, Obs (weeds [1]; DIGSA, 250 g/ha alone): 10% | % control score, Obs (weeds [1]; ECHCG, 15.625 g/ha alone): 1% | % control score, Obs (weeds [1]; ECHCG, 62.5 g/ha alone): 2% | % control score, Obs (weeds [1]; ECHCG, 250 g/ha alone): 30% | % control score, Obs (weeds [1]; PANMI, 15.625 g/ha alone): 2% | % control score, Obs (weeds [1]; PANMI, 62.5 g/ha alone): 10% | % control score, Obs (weeds [1]; PANMI, 250 g/ha alone): 55% | % control score, Obs (weeds [1]; SETFA, 15.625 g/ha alone): 1% | % control score, Obs (weeds [1]; SETFA, 62.5 g/ha alone): 5% | % control score, Obs (weeds [1]; SETFA, 250 g/ha alone): 40% | % control score, Obs (weeds [1]; SIDSP, 15.625 g/ha alone): 10% | % control score, Obs (weeds [1]; SIDSP, 62.5 g/ha alone): 30% | % control score, Obs (weeds [1]; SIDSP, 250 g/ha alone): 40% | BRAPL Obs, % control score (weeds [2]; HST inhibitor rate 15.625 g/ha): 0% | BRAPL Obs, % control score (weeds [2]; HST inhibitor rate 62.5 g/ha): 2% | BRAPL Obs, % control score (weeds [2]; HST inhibitor rate 250 g/ha): 20% | DIGSA Obs, % control score (weeds [2]; HST inhibitor rate 15.625 g/ha): 0% | DIGSA Obs, % control score (weeds [2]; HST inhibitor rate 62.5 g/ha): 0% | DIGSA Obs, % control score (weeds [2]; HST inhibitor rate 250 g/ha): 5% | ECHCG Obs, % control score (weeds [2]; HST inhibitor rate 15.625 g/ha): 0% | ECHCG Obs, % control score (weeds [2]; HST inhibitor rate 62.5 g/ha): 0% | ECHCG Obs, % control score (weeds [2]; HST inhibitor rate 250 g/ha): 30% | PANMI Obs, % control score (weeds [2]; HST inhibitor rate 15.625 g/ha): 0% | PANMI Obs, % control score (weeds [2]; HST inhibitor rate 62.5 g/ha): 0% | PANMI Obs, % control score (weeds [2]; HST inhibitor rate 250 g/ha): 10% | SETFA Obs, % control score (weeds [2]; HST inhibitor rate 15.625 g/ha): 0% | SETFA Obs, % control score (weeds [2]; HST inhibitor rate 62.5 g/ha): 1% | SETFA Obs, % control score (weeds [2]; HST inhibitor rate 250 g/ha): 15% | SIDSP Obs, % control score (weeds [2]; HST inhibitor rate 15.625 g/ha): 0% | SIDSP Obs, % control score (weeds [2]; HST inhibitor rate 62.5 g/ha): 1% | SIDSP Obs, % control score (weeds [2]; HST inhibitor rate 250 g/ha): 2%

CNc1cnn(-c2cccc(C(F)(F)F)c2)c(=O)c1Cl [Norflurazon, reference compound]
herbicide % damage [3]: 20% and 15% and 10%

COCCOCc1nc(C(F)(F)F)ccc1C(=O)C1=C(O)C2CCC(C2)C1=O (stereo not shown) [Compound A22, 4-hydroxy-3-[[2-(2-methoxyethoxy)methyl]-6-(trifluoromethyl)-3-pyridinylicarbonyl]-bicyclo[3.2.1]oct-3-en-2-one, reference compound]
% control score, Obs (weeds [1]; BRAPL, A22 alone 2 g/ha): 2% | % control score, Obs (weeds [1]; DIGSA, A22 alone 2 g/ha): 5% | % control score, Obs (weeds [1]; ECHCG, A22 alone 2 g/ha): 30% | % control score, Obs (weeds [1]; PANMI, A22 alone 2 g/ha): 50% and 55% | % control score, Obs (weeds [1]; SETFA, A22 alone 2 g/ha): 10% and 2% | % control score, Obs (weeds [1]; SIDSP, A22 alone 2 g/ha): 20% and 15% | BRAPL Obs, % control score (weeds [2]; rate 2 g/ha): 0% | DIGSA Obs, % control score (weeds [2]; rate 2 g/ha): 2% and 0% | ECHCG Obs, % control score (weeds [2]; rate 2 g/ha): 5% and 0% | PANMI Obs, % control score (weeds [2]; rate 2 g/ha): 0% | SETFA Obs, % control score (weeds [2]; rate 2 g/ha): 5% and 0% | SIDSP Obs, % control score (weeds [2]; rate 2 g/ha): 2% and 0%

CC(C)C(=O)Oc1c(-c2c(Cl)cccc2C(F)(F)F)c(=O)n(CC(F)F)c2nccnc12 [Compound 2.28]
% control score, Obs (weeds [1]; BRAPL, 15.625 g/ha alone): 5% | % control score, Obs (weeds [1]; BRAPL, 62.5 g/ha alone): 50% | % control score, Obs (weeds [1]; BRAPL, 250 g/ha alone): 75% | % control score, Obs (weeds [1]; DIGSA, 15.625 g/ha alone): 10% | % control score, Obs (weeds [1]; DIGSA, 62.5 g/ha alone): 50% | % control score, Obs (weeds [1]; DIGSA, 250 g/ha alone): 70% | % control score, Obs (weeds [1]; ECHCG, 15.625 g/ha alone): 2% | % control score, Obs (weeds [1]; ECHCG, 62.5 g/ha alone): 40% | % control score, Obs (weeds [1]; ECHCG, 250 g/ha alone): 70% | % control score, Obs (weeds [1]; PANMI, 15.625 g/ha alone): 1% | % control score, Obs (weeds [1]; PANMI, 62.5 g/ha alone): 35% | % control score, Obs (weeds [1]; PANMI, 250 g/ha alone): 70% | % control score, Obs (weeds [1]; SETFA, 15.625 g/ha alone): 2% | % control score, Obs (weeds [1]; SETFA, 62.5 g/ha alone): 50% | % control score, Obs (weeds [1]; SETFA, 250 g/ha alone): 80% | % control score, Obs (weeds [1]; SIDSP, 15.625 g/ha alone): 15% | % control score, Obs (weeds [1]; SIDSP, 62.5 g/ha alone): 40% | % control score, Obs (weeds [1]; SIDSP, 250 g/ha alone): 50% | BRAPL Obs, % control score (weeds [2]; HST inhibitor rate 15.625 g/ha): 0% | BRAPL Obs, % control score (weeds [2]; HST inhibitor rate 62.5 g/ha): 2% | BRAPL Obs, % control score (weeds [2]; HST inhibitor rate 250 g/ha): 50% | DIGSA Obs, % control score (weeds [2]; HST inhibitor rate 15.625 g/ha): 0% | DIGSA Obs, % control score (weeds [2]; HST inhibitor rate 62.5 g/ha): 0% | DIGSA Obs, % control score (weeds [2]; HST inhibitor rate 250 g/ha): 30% | ECHCG Obs, % control score (weeds [2]; HST inhibitor rate 15.625 g/ha): 0% | ECHCG Obs, % control score (weeds [2]; HST inhibitor rate 62.5 g/ha): 50% | ECHCG Obs, % control score (weeds [2]; HST inhibitor rate 250 g/ha): 80% | PANMI Obs, % control score (weeds [2]; HST inhibitor rate 15.625 g/ha): 0% | PANMI Obs, % control score (weeds [2]; HST inhibitor rate 62.5 g/ha): 0% | PANMI Obs, % control score (weeds [2]; HST inhibitor rate 250 g/ha): 60% | SETFA Obs, % control score (weeds [2]; HST inhibitor rate 15.625 g/ha): 0% | SETFA Obs, % control score (weeds [2]; HST inhibitor rate 62.5 g/ha): 25% | SETFA Obs, % control score (weeds [2]; HST inhibitor rate 250 g/ha): 60% | SIDSP Obs, % control score (weeds [2]; HST inhibitor rate 15.625 g/ha): 0% | SIDSP Obs, % control score (weeds [2]; HST inhibitor rate 62.5 g/ha): 0% | SIDSP Obs, % control score (weeds [2]; HST inhibitor rate 250 g/ha): 10%
